Reference: paper PMC11061835, “Elucidating the Mechanism of Metabolism of Cannabichromene by Human Cytochrome P450s” (Journal of Natural Products, 2024)
“And” between values parts separate entries of the source, which are not always exact repeats. Identical values can stand only once.

Columns and labels:
CYP2J2 = target: T1, CYP2J2 (Homo sapiens, UniProt P51589); experiment: CBC metabolism by CYP2J2; assay type: in vitro ADME
T1 construct: His-tag; made in house; host or cells: E. coli DH-5α with pTGro7 plasmid
T1 sequence (P51589 1-502): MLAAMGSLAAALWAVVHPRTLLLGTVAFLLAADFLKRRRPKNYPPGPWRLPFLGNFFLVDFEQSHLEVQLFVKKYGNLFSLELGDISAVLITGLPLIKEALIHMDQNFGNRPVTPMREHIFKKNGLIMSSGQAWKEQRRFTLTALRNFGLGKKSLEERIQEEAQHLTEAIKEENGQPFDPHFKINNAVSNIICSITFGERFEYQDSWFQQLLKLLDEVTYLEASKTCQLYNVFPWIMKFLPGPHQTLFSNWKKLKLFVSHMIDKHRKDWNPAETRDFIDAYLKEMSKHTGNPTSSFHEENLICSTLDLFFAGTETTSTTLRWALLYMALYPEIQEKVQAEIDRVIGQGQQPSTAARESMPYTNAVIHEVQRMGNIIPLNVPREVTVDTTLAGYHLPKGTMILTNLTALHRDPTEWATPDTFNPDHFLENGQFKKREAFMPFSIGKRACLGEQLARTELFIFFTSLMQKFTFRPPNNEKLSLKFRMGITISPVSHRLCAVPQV
Experimental: To study the kinetics of CBC metabolism, concentration dependent metabolism of CBC was carried out in the presence of various CYPs using the following procedure. CYP2J2, CYP2C8, CYP2D6, CYP2C9, and CYP3A4 (final concentration 0.5 μM) were initially dissolved in lipid containing POPC:POPS (8:2 v/v) followed by addition of CPR (final concentration 0.6 μM) in 0.1 M potassium phosphate buffer (pH 7.4). CBC (5–80 μM) was added and incubated at 37 °C for 10 min. The reaction was triggered by NADPH and extracted using the exact sample protocol as mentioned in the HLM section.
Samples were analyzed with the 5500 QTRAP LC/MS/MS system (Sciex, Framingham, MA) in the Metabolomics Lab of Roy J. Carver Biotechnology Center, University of Illinois at Urbana–Champaign. Software Analyst 1.7.1 was used for data acquisition and analysis. The 1200 series HPLC system (Agilent Technologies, Santa Clara, CA) includes a degasser, an autosampler, and a binary pump. […] Multiple reaction monitoring (MRM) was used for quantitation: CBC m/z 315.1 → m/z 135.0; 1-acetoxy-6′,7′-dihydroxy-CBC (JM-I-73) m/z 349.1→ m/z 193.0; 1″-hydroxy-CBC (JM-I-66) m/z 331.1→ m/z 275.1; 6′,7′-epoxy-CBC (JM-I-27) m/z 331.1→ m/z 193.0; 7′,10′-ene-6′-hydroxy-CBC (JM-I-30) m/z 331.1→ m/z 193.0; 8′-hydroxy-CBC (JM-I-32) […]→ m/z 77.0. Internal standard EET-EA-d11 was monitored at m/z 375.2→ m/z 357.1.

CYP2C9 with CPR = target: T2, CYP2C9 with CPR (Homo sapiens, UniProt P11712); experiment: NADPH activity assay, CYP2C9 with CPR; assay type: biochemical; conditions: CYP2C9, CBC 50 μM vs substrate-free
T2 construct: His-tag; made in house; host or cells: E. coli DH-5α with pTGro7 plasmid (CYP)
Experimental: (§1) CYP-mediated NADPH oxidation was measured using kinetics mode in a Cary 300 UV–vis spectrometer (Agilent Technologies). 0.2 μM (final concentration) of CYP was taken in 0.1 M potassium phosphate buffer (pH 7.4) and incubated with 0.6 μM (final concentration) of CPR for 5 min with a reaction volume of 400 μL. The reaction was initiated with 200 μM of NADPH, and the absorption change was monitored over 10 min at 340 nm. The rate of NADPH consumption (or NADPH to NADP^+ conversion) was calculated by taking the molar extinction coefficient as 6.22 mM^–1 cm^–1 at 340 nm. To estimate the change in NADPH oxidation in the presence of CBC, both CYP and CPR were further incubated using CBC (final concentration 50 μM) for 5 min followed by measuring the change in absorbance at 340 nm as discussed earlier.

CYP2J2 with CPR = target: T3, CYP2J2 with CPR (Homo sapiens, UniProt P51589); experiment: NADPH activity assay, CYP2J2 with CPR; assay type: biochemical
T3 construct: His-tag; made in house; host or cells: E. coli DH-5α with pTGro7 plasmid (CYP)
T3 sequence (P51589 1-502): T1 sequence (P51589 1-502)
T3 sequence (P16435 1-677 partner): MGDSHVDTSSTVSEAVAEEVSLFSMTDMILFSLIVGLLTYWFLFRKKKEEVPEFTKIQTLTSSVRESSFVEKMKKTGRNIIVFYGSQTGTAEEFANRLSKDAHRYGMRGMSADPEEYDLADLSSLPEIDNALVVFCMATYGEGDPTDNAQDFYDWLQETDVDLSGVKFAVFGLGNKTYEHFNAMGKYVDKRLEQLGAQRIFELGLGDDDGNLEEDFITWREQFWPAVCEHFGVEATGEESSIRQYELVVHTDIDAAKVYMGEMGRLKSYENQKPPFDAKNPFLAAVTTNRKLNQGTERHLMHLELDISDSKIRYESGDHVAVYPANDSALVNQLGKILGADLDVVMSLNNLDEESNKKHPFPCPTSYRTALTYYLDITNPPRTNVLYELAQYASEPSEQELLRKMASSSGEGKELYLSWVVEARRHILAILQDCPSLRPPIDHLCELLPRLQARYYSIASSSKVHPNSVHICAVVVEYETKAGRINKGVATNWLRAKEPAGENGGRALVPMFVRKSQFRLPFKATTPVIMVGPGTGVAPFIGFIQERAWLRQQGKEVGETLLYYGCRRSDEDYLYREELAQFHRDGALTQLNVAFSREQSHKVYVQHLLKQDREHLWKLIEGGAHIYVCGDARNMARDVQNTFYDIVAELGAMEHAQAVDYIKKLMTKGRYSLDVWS
Experimental: as §1

T2 sequence (P11712 whole entry, one chain of several): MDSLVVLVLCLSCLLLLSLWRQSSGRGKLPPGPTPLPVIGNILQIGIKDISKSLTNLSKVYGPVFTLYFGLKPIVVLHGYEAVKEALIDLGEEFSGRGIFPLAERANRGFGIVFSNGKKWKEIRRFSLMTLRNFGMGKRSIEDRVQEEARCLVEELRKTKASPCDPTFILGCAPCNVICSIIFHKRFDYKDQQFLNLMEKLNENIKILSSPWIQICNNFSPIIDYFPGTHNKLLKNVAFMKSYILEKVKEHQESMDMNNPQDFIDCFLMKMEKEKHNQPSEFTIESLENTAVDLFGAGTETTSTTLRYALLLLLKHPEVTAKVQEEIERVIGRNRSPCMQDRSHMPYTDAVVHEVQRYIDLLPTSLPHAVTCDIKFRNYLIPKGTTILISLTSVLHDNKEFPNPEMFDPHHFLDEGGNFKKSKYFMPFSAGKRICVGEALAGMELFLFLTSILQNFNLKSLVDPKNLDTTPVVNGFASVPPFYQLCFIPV

| Structure (SMILES) | ratio of 8′-hydroxy-CBC to 6′,7′-epoxy-CBC formed (CYP2J2; CYP2J2, from Vmax) | production of 8′-hydroxy-CBC with CYP2J2 relative to CYP2C8 (CYP2J2; CYP2J2 vs CYP2C8) | percentage increase of NADPH consumption in the presence of CBC (CYP2C9 with CPR) | NADPH rate (CYP+CPR+CBC) (CYP2J2 with CPR; CYP2J2, CBC 50 μM) | percentage increase of NADPH consumption in the presence of CBC (CYP2J2 with CPR; CYP2J2, CBC 50 μM vs substrate-free) |
| --- | --- | --- | --- | --- | --- |
| CCCCCc1cc(O)c2c(c1)OC(C)(CC/C=C(\C)CO)C=C2 (centres unmarked) [8′-hydroxy-CBC] | approximately 50 | ~10 times | – | – | – |
| CCCCCc1cc(O)c2c(c1)OC(C)(CCC=C(C)C)C=C2 (centres unmarked) [CBC, Cannabichromene] | – | – | ~90% | 21.7 nmol/min/nmol and ~20 nmol/min/nmol | ~60% |
